Laboratory results: the supplement of paper PMC11208160

test: recombinant UMI read abundance after kanamycin selection (control-corrected) (log10(CPM+1)); higher = more efficient recombination; extreme values may be limits of the assay; sequences stand for … in AGTGCAGAGAAAATCGGCCAGTTTTCTCTGCCTGCAGTCCGCATGCCGTGGGACCCCTTGGGTTCTAACCTGTTGCCTAGATTTATGCAGCGGACTGCCTTTCTCCCAAAGTGATAAACCGG…AGGTTGGTTTCACT; site = the 11-nt donor
Method in brief: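 Counts of recombinant UMIs were reported as log10(CPM+1). Before that, they were converted to CPM, averaged over replicates and scaled using control-derived factors. They came from PCR across the donor–target junction after Escherichia coli carrying the pair library and target plasmid was plated on IPTG (0.07 mM) plus kanamycin, or unselected, in two replicates each.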
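Also: IS621 bridge recombinase in Escherichia coli cells against a fixed T5 target plasmid.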

Row | Sequence | recombinant UMI read abundance (log10)
1 | GATCGTGCATGGACCGGTTTTCCCGGTAATCCGTATTTGGC (site GATCGTGCTGC) | 1.18
2 | GATCTAACATGGACCGGTTTTCCCGGTAATCCGTATTTGTC (site GATCTAACTGA) | 0
3 | GATCTGCCATGGACCGGTTTTCCCGGTAATCCGTATTTGAT (site GATCTGCCTAT) | 0.0121
4 | GATGAGACATGGACCGGTTTTCCCGGTAATCCGTATTTGAA (site GATGAGACTTT) | 1.82
5 | GATTAACCATGGACCGGTTTTCCCGGTAATCCGTATTTGCT (site GATTAACCTAG) | 0
6 | GATTAACCATGGACCGGTTTTCCCGGTAATCCGTATTTGCT (site GATTACCCTAG) | 0
7 | GATTAACCATGGACCGGTTTTCCCGGTAATCCGTATTTGCT (site GATTAGCCTAG) | 0
8 | GATTAACCATGGACCGGTTTTCCCGGTAATCCGTATTTGCT (site GATTATCCTAG) | 0.0295
9 | GATTAGCCATGGACCGGTTTTCCCGGTAATCCGTATTTGCT (site GATTAACCTAG) | 0
10 | GATTAGCCATGGACCGGTTTTCCCGGTAATCCGTATTTGCT (site GATTACCCTAG) | 0
11 | GATTAGCCATGGACCGGTTTTCCCGGTAATCCGTATTTGCT (site GATTAGCCTAG) | 0
12 | GATTAGCCATGGACCGGTTTTCCCGGTAATCCGTATTTGCT (site GATTATCCTAG) | 0
13 | GATTATACATGGACCGGTTTTCCCGGTAATCCGTATTTGCT (site GATTATACTAG) | 1.87
14 | GATTATACATGGACCGGTTTTCCCGGTAATCCGTATTTGCT (site GATTATCCTAG) | 0
15 | GATTATACATGGACCGGTTTTCCCGGTAATCCGTATTTGCT (site GATTATGCTAG) | 0
16 | GATTATACATGGACCGGTTTTCCCGGTAATCCGTATTTGCT (site GATTATTCTAG) | 0
17 | GATTATCCATGGACCGGTTTTCCCGGTAATCCGTATTTGCA (site GATTATCCTAG) | 0
18 | GATTATCCATGGACCGGTTTTCCCGGTAATCCGTATTTGCA (site GATTATCCTCG) | 0
19 | GATTATCCATGGACCGGTTTTCCCGGTAATCCGTATTTGCA (site GATTATCCTGG) | 0
20 | GATTATCCATGGACCGGTTTTCCCGGTAATCCGTATTTGCA (site GATTATCCTTG) | 0
21 | GATTATCCATGGACCGGTTTTCCCGGTAATCCGTATTTGCG (site GATTATCCTAG) | 0
22 | GATTATCCATGGACCGGTTTTCCCGGTAATCCGTATTTGCG (site GATTATCCTCG) | 0.363
23 | GATTATCCATGGACCGGTTTTCCCGGTAATCCGTATTTGCG (site GATTATCCTGG) | 0

Row | Sequence | recombinant UMI read abundance (log10)
24 | GATTATCCATGGACCGGTTTTCCCGGTAATCCGTATTTGCG (site GATTATCCTTG) | 0
25 | GATTATTCATGGACCGGTTTTCCCGGTAATCCGTATTTGCT (site GATTATACTAG) | 0
26 | GATTATTCATGGACCGGTTTTCCCGGTAATCCGTATTTGCT (site GATTATCCTAG) | 0
27 | GATTATTCATGGACCGGTTTTCCCGGTAATCCGTATTTGCT (site GATTATGCTAG) | 0
28 | GATTATTCATGGACCGGTTTTCCCGGTAATCCGTATTTGCT (site GATTATTCTAG) | 1.96
29 | GATTCACCATGGACCGGTTTTCCCGGTAATCCGTATTTGCG (site GATTCACCTCG) | 0.00637
30 | GATTCCCCATGGACCGGTTTTCCCGGTAATCCGTATTTGGG (site TTAGGTTCTGA) | 0
31 | GATTCTCCATGGACCGGTTTTCCCGGTAATCCGTATTTGCT (site GATTATCCTAG) | 0
32 | GATTCTCCATGGACCGGTTTTCCCGGTAATCCGTATTTGCT (site GATTCTCCTAG) | 0.753
33 | GATTCTCCATGGACCGGTTTTCCCGGTAATCCGTATTTGCT (site GATTGTCCTAG) | 0
34 | GATTCTCCATGGACCGGTTTTCCCGGTAATCCGTATTTGCT (site GATTTTCCTAG) | 0
35 | GATTGGACATGGACCGGTTTTCCCGGTAATCCGTATTTGGC (site GATTGGACTGA) | 0
36 | GATTGGACATGGACCGGTTTTCCCGGTAATCCGTATTTGGC (site GATTGGACTGC) | 1.65
37 | GATTGGACATGGACCGGTTTTCCCGGTAATCCGTATTTGGC (site GATTGGACTGG) | 0
38 | GATTGGACATGGACCGGTTTTCCCGGTAATCCGTATTTGGC (site GATTGGACTGT) | 1.63
39 | GATTGGCCATGGACCGGTTTTCCCGGTAATCCGTATTTGAC (site GATTGGACTGT) | 0
40 | GATTGGCCATGGACCGGTTTTCCCGGTAATCCGTATTTGAC (site GATTGGCCTGT) | 0
41 | GATTGGCCATGGACCGGTTTTCCCGGTAATCCGTATTTGAC (site GATTGGGCTGT) | 0
42 | GATTGGCCATGGACCGGTTTTCCCGGTAATCCGTATTTGAC (site GATTGGTCTGT) | 0
43 | GATTGGCCATGGACCGGTTTTCCCGGTAATCCGTATTTGCA (site GAATGGCCTTG) | 0
44 | GATTGGCCATGGACCGGTTTTCCCGGTAATCCGTATTTGCA (site GACTGGCCTTG) | 0
45 | GATTGGCCATGGACCGGTTTTCCCGGTAATCCGTATTTGCA (site GAGTGGCCTTG) | 0
46 | GATTGGCCATGGACCGGTTTTCCCGGTAATCCGTATTTGCA (site GATTGGCCTTG) | 0.00508

Row | Sequence | recombinant UMI read abundance (log10)
47 | GATTGGGCATGGACCGGTTTTCCCGGTAATCCGTATTTGAC (site GATTGGACTGT) | 0.803
48 | GATTGGGCATGGACCGGTTTTCCCGGTAATCCGTATTTGAC (site GATTGGCCTGT) | 0
49 | GATTGGGCATGGACCGGTTTTCCCGGTAATCCGTATTTGAC (site GATTGGGCTGT) | 1.51
50 | GATTGGGCATGGACCGGTTTTCCCGGTAATCCGTATTTGAC (site GATTGGTCTGT) | 0
51 | GATTGGTCATGGACCGGTTTTCCCGGTAATCCGTATTTGAC (site GATTGGACTGT) | 0
52 | GATTGGTCATGGACCGGTTTTCCCGGTAATCCGTATTTGAC (site GATTGGCCTGT) | 0
53 | GATTGGTCATGGACCGGTTTTCCCGGTAATCCGTATTTGAC (site GATTGGGCTGT) | 0
54 | GATTGGTCATGGACCGGTTTTCCCGGTAATCCGTATTTGAC (site GATTGGTCTGT) | 0
55 | GATTTGCCATGGACCGGTTTTCCCGGTAATCCGTATTTGGA (site GATTTGCCTTC) | 0.0059
56 | GATTTGGCATGGACCGGTTTTCCCGGTAATCCGTATTTGTG (site AATTTGGCTCA) | 0.142
57 | GATTTGGCATGGACCGGTTTTCCCGGTAATCCGTATTTGTG (site CATTTGGCTCA) | 0.309
58 | GATTTGGCATGGACCGGTTTTCCCGGTAATCCGTATTTGTG (site GATTTGGCTCA) | 0.152
59 | GATTTGGCATGGACCGGTTTTCCCGGTAATCCGTATTTGTG (site TATTTGGCTCA) | 0.0288
60 | GCAAAAGCATGGACCGGTTTTCCCGGTAATCCGTATTTGCC (site GCAAAAGCTGG) | 0.282
61 | GCAACCTCATGGACCGGTTTTCCCGGTAATCCGTATTTGCT (site GCAACCTCTAG) | 1.91
62 | GCAACTGCATGGACCGGTTTTCCCGGTAATCCGTATTTGGC (site GCAACTGCTGC) | 1.95
63 | GCAAGAACATGGACCGGTTTTCCCGGTAATCCGTATTTGAC (site GCAAGAACTGT) | 2.57
64 | GCAAGCGCATGGACCGGTTTTCCCGGTAATCCGTATTTGAT (site GCAAGCGCTAT) | 2.29
65 | GCACCATCATGGACCGGTTTTCCCGGTAATCCGTATTTGTA (site GCACCATCTTA) | 2.47
66 | GCACGACCATGGACCGGTTTTCCCGGTAATCCGTATTTGGG (site GCACGACCTCC) | 0.0133
67 | GCACGCGCATGGACCGGTTTTCCCGGTAATCCGTATTTGGT (site GCACGCGCTAC) | 1.22
68 | GCAGATTCATGGACCGGTTTTCCCGGTAATCCGTATTTGGG (site GCAGATTCTCC) | 0.609
